Like-named read-outs stand apart in the source and are kept apart here. Where a SMILES comes first, the peptide text is derived from it. Side-chain parts run from the residue outwards. The star is where a group is joined. Nicotinoyl = O=C(c1cccnc1)*; Cbz = O=C(OCc1ccccc1)*
Target: T1, human AT2 receptor (Homo sapiens, UniProt P50052)
T1 construct: membranes prepared in house
T1 sequence (P50052 1-363): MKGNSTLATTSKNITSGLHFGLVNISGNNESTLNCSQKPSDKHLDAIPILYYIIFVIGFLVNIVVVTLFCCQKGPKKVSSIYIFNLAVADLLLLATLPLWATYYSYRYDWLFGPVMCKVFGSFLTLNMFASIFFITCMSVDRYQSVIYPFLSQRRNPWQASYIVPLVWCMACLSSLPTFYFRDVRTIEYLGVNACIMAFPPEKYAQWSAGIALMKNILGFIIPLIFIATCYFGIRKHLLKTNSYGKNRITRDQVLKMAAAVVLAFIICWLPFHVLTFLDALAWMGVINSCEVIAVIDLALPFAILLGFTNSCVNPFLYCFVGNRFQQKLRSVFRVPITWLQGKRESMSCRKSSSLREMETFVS
Assay: AT2 receptor binding ([125I]CGP 42112A displacement, CHO-K1 membranes)
Source text: Reagents were purchased from Sigma-Aldrich, unless otherwise specified. Dialyzed fetal bovine serum (FBS) was from Life Technologies (cat. no. 10073772). Valiscreen® human angiotensin AT2 receptor cell line (cat. no. ES-070-C), [^125I]CGP 42112A (cat. no. NEX324025UC) and MicroScint™ 40 (cat. no. 6013641) were purchased from PerkinElmer. CGP 42112A (cat. no. 2569) and PD 123,319 ditrifluoroacetate (cat. no. 1361) were from Tocris Biosciences.
• 1. Growth medium • EX-CELL® CHO DHFR^− medium • 10% FBS, dialysed • 1 mM sodium pyruvate • 2 mM L-glutamine • 2. Harvesting buffer • PBS • 2 mM EDTA • 3. Suspension buffer • 50 mM Tris-HCl, pH 7.4 • 10 mM EDTA • 4. Resuspension buffer • 50 mM Tris-HCl, pH 7.4 • 0.1 mM EDTA • 0.1% sucrose • 5. Binding assay buffer • 50 mM Tris-HCl, pH 7.4 • 5 mM MgCl2 • 1 mM EDTA • 0.1% gelatin • 6. Wash buffer • 50 mM Tris-HCl, pH 7.4 Procedure for Membrane Preparation • Valiscreen® CHO-K1 cells stably expressing the human AT2 receptor were cultured in growth medium. • Cells were seeded into T-175 flasks and grown to 70-80% confluence. • Medium was removed from confluent flasks and cells were washed with warm PBS. • Cells were harvested by incubating with harvesting buffer for 10 min at 37° C., and then transferred to a centrifuge tube on ice. • Cells were centrifuged at 200 g for 5 min at 4° C. • Cell pellets were homogenised in ice-cold suspension buffer. • Homogenates were centrifuged at 40,000 g for 15 min at 4° C. • Pellets were resuspended in ice-cold resuspension buffer and centrifuged at 40,000 g for 15 min at 4° C. • Final pellets were homogenised in ice-cold resuspension buffer. • Protein concentrations were determined by BCA assay method with BSA as standard. Compound Preparation
Compounds were prepared from 10 mM stock solutions in 100% DMSO. Dilutions were made using electronic multichannel pipettes.
• Compounds dilutions were prepared in 100% DMSO at 100× final assay concentration. • Compounds were diluted in 100% DMSO to the appropriate maximal concentration. • 30 μL compound was added to row A. • 21.6 μL of 100% DMSO was added to rows B-H. • Transfer 10 μL from row A into row B (half log dilution). • Transfer 10 μL from row B into row C (half log dilution). • Transfer 10 μL from row C into row D (half log dilution). • Transfer 10 μL from row D into row E (half log dilution). • Transfer 10 μL from row E into row F (half log dilution). • Transfer 10 μL from row F into row G (half log dilution). • Transfer 10 μL from row G into row H (half log dilution). Working Plate Preparation (96-Well Plate) • Compounds were diluted 10-fold in assay buffer. • 10 μL compound solution from dose plate was transferred to corresponding well of working plate. • 90 μL assay buffer was added to the wells of working plate. • Working solutions contained 10% DMSO in assay buffer (1% DMSO final assay concentration). Controls • Total binding (high control) was determined in the absence of unlabelled ligand. A solution of 10% DMSO in assay buffer was prepared. • Non-specific binding (low control) was determined in the presence of a vast excess (10 μM) of PD 123,319. 1 mM stock solution of PD 123,319 in water was diluted 10-fold with 10% DMSO in assay buffer. Assay Plate Preparation (96-Well Plate)
15 μL compound solution was transferred to duplicate wells of assay plate. 5 compounds were tested per plate. 15 μL control solutions were transferred to columns 1 and 12 of assay plate.

[1] = [125I]CGP 42112A 0.05 nM, membranes of CHO-K1 cells expressing human AT2 receptor, Ki from IC50 by Cheng-Prussoff equation, read-out: Ki

| Structure (SMILES) | Ki [1] | Ki (standard compounds, mean±S.E.M., read-out: Dissociation constants (pKi) (converted)) |
| --- | --- | --- |
| O=C(NS(=O)(=O)C1CC1)[C@@H]1C[C@H](N2CCCCc3cc(F)c(F)cc32)CN1C(=O)C(c1ccccc1)c1ccccc1 [Compound 41, (2S,4S)—N-(Cyclopropylsulfonyl)-4-(7,8-difluoro-2,3,4,5-tetrahydro-1H-benzo[b]azepin-1-yl)-1-(2,2-diphenylacetyl)pyrrolidine-2-carboxamide] | 0.0151 µM | – |
| O=C(O)[C@@H]1C[C@H](N2CCOCc3ccccc32)CN1C(=O)C(c1ccccc1)c1ccccc1 [Compound 10, (2S,4S)-4-(2,3-Dihydrobenzo[e][1,4]oxazepin-1(5H)-yl)-1-(2,2-diphenylacetyl)pyrrolidine-2-carboxylic acid] | 0.148 µM | – |
| O=C(O)[C@@H]1C[C@H](N2CCCOc3ccccc32)CN1C(=O)C(c1ccccc1)c1ccccc1 [Compound 7, (2S,4S)-4-(3,4-dihydrobenzo[b][1,4]oxazepin-5(2H)-yl)-1-(2,2-diphenylacetyl)pyrrolidine-2-carboxylic acid] | 0.002 µM | – |
| O=C(O)[C@@H]1C[C@H](N2Cc3ccccc3C2)CN1C(=O)C(c1ccccc1)c1ccccc1 [Compound 20, (2S,4S)-1-(2,2-Diphenylacetyl)-4-(isoindolin-2-yl)pyrrolidine-2-carboxylic acid] | 0.359 µM | – |
| Cc1ccc2c(c1)N([C@@H]1C[C@@H](C(=O)O)N(C(=O)C(c3ccccc3)c3ccccc3)C1)CCCC2 [Compound 23, (2S,4R)-1-(2,2-Diphenylacetyl)-4-(8-methyl-2,3,4,5-tetrahydro-1H-benzo[b]azepin-1-yl)pyrrolidine-2-carboxylic acid] | 0.0159 µM | – |
| O=C(C(c1ccccc1)c1ccccc1)N1C[C@@H](N2CCCCc3ccccc32)C[C@H]1c1nn[nH]n1 [Compound 35, 2,2-Diphenyl-1-((2S,4S)-4-(2,3,4,5-tetrahydro-1H-benzo[b]azepin-1-yl)-2-(2H-tetrazol-5-yl)pyrrolidin-1-yl)ethan-1-one] | 0.0362 µM | – |
| C[C@@]1(C(=O)O)C[C@H](N2CCCCc3ccccc32)CN1C(=O)C(c1ccccc1)c1ccccc1 [Compound 30, (2S,4S)-1-(2,2-Diphenylacetyl)-2-methyl-4-(2,3,4,5-tetrahydro-1H-benzo[b]azepin-1-yl)pyrrolidine-2-carboxylic acid] | 0.0033 µM | – |
| O=C(O)[C@@H]1C[C@H](N2CCCS(=O)(=O)c3ccccc32)CN1C(=O)C(c1ccccc1)c1ccccc1 [Compound 34, (2S,4S)-4-(1,1-Dioxido-3,4-dihydrobenzo[b][1,4]thiazepin-5(2H)-yl)-1-(2,2-diphenylacetyl)pyrrolidine-2-carboxylic acid] | 0.01 µM | – |
| O=C(O)[C@@H]1C[C@H](N2CCc3ccccc32)CN1C(=O)C(c1ccccc1)c1ccccc1 [Compound 29, (2S,4S)-1-(2,2-Diphenylacetyl)-4-(indolin-1-yl)pyrrolidine-2-carboxylic acid] | 0.225 µM | – |
| C[C@@]1(C(=O)NS(=O)(=O)C2CC2)C[C@H](N2CCCOc3cc(F)c(F)cc32)CN1C(=O)C(c1ccccc1)c1ccccc1 [Compound 42b, (2S,4S)—N-(cyclopropylsulfonyl)-4-(7,8-difluoro-3,4-dihydrobenzo[b][1,4]oxazepin-5(2H)-yl)-1-(2,2-diphenylacetyl)-2-methylpyrrolidine-2-carboxamide] | 0.011 µM | – |
| O=C(O)[C@@H]1C[C@H](N2CCCCc3cc(F)c(F)cc32)CN1C(=O)C(c1ccccc1)c1ccccc1 [Compound 27, (2S,4S)-4-(7,8-Difluoro-2,3,4,5-tetrahydro-1H-benzo[b]azepin-1-yl)-1-(2,2-diphenylacetyl)pyrrolidine-2-carboxylic acid] | 0.0028 µM | – |
| CN(C)S(=O)(=O)NC(=O)[C@@H]1C[C@H](N2CCCCc3cc(F)c(F)cc32)CN1C(=O)C(c1ccccc1)c1ccccc1 [Compound 40, (2S,4S)-4-(7,8-Difluoro-2,3,4,5-tetrahydro-1H-benzo[b]azepin-1-yl)-N—(N,N-dimethylsulfamoyl)-1-(2,2-diphenylacetyl)pyrrolidine-2-carboxamide] | 0.0093 µM | – |
| O=C(O)[C@@H]1C[C@H](N2CCc3ccccc3CC2)CN1C(=O)C(c1ccccc1)c1ccccc1 [Compound 45, (2S,4S)-1-(2,2-Diphenylacetyl)-4-(1,2,4,5-tetrahydro-3H-benzo[d]azepin-3-yl)pyrrolidine-2-carboxylic acid] | 0.0282 µM | – |
| O=C(O)[C@@H]1C[C@H](N2CCCCc3cccnc32)CN1C(=O)C(c1ccccc1)c1ccccc1 [Compound 12, (2S,4S)-1-(2,2-Diphenylacetyl)-4-(5,6,7,8-tetrahydro-9H-pyrido[2,3-b]azepin-9-yl)pyrrolidine-2-carboxylic acid] | 0.081 µM | – |
| NC(=O)[C@@H]1C[C@H](N2CCCCc3ccccc32)CN1C(=O)C(c1ccccc1)c1ccccc1 [Compound 15, (2S,4S)-1-(2,2-Diphenylacetyl)-4-(2,3,4,5-tetrahydro-1H-benzo[b]azepin-1-yl)pyrrolidine-2-carboxamide] | 0.0668 µM | – |
| CN(C)S(=O)(=O)NC(=O)[C@@H]1C[C@H](N2CCCOc3cc(F)c(F)cc32)CN1C(=O)C(c1ccccc1)c1ccccc1 [Compound 39, (2S,4S)-4-(7,8-Difluoro-3,4-dihydrobenzo[b][1,4]oxazepin-5(2H)-yl)-N—(N,N-dimethylsulfamoyl)-1-(2,2-diphenylacetyl)pyrrolidine-2-carboxamide] | 0.0102 µM | – |
| O=C(O)[C@@H]1C[C@@H](N2CCCCc3ccccc32)CN1C(=O)C(c1ccccc1)c1ccccc1 [Compound 22, (2S,4R)-1-(2,2-diphenylacetyl)-4-(2,3,4,5-tetrahydro-1H-benzo[b]azepin-1-yl)pyrrolidine-2-carboxylic acid] | 0.0098 µM | – |
| CC[C@H](C)[C@H](NC(=O)[C@@H]1CCCN1C(=O)[C@H](Cc1c[nH]cn1)NC(=O)[C@H](CCCCNC(=O)[C@H](CCCN=C(N)N)NC(=O)OCc1ccccc1)NC(=O)[C@H](Cc1ccc(O)cc1)NC(=O)c1cccnc1)C(=O)O [CGP 42112A, reference compound] (Nicotinoyl-YK([Arg-Cbz])HPI-OH) | – | 0.000178 µM |
| COc1ccc2c(c1)CCCCN2[C@H]1C[C@@H](C(=O)O)N(C(=O)C(c2ccccc2)c2ccccc2)C1 [Compound 4, (2S,4S)-1-(2,2-Diphenylacetyl)-4-(7-methoxy-2,3,4,5-tetrahydro-1H-benzo[b]azepin-1-yl)pyrrolidine-2-carboxylic acid] | 0.0088 µM | – |
| C[C@@]1(C(=O)NS(=O)(=O)C2CC2)C[C@@H](N2CCCOc3cc(F)c(F)cc32)CN1C(=O)C(c1ccccc1)c1ccccc1 [Compound 42a, (2S,4R)—N-(cyclopropylsulfonyl)-4-(7,8-difluoro-3,4-dihydrobenzo[b][1,4]oxazepin-5(2H)-yl)-1-(2,2-diphenylacetyl)-2-methylpyrrolidine-2-carboxamide] | 0.005 µM | – |
| C[C@@]1(C(=O)O)C[C@H](N2CCCOc3cc(F)ccc32)CN1C(=O)C(c1ccccc1)c1ccccc1 [Compound 33, (2S,4S)-1-(2,2-Diphenylacetyl)-4-(8-fluoro-3,4-dihydrobenzo[b][1,4]oxazepin-5(2H)-yl)-2-methylpyrrolidine-2-carboxylic acid] | 0.007 µM | – |

Reference: US10065943B2, “Pyrrolidine derivatives as angiotensin II type 2 antagonists” (NOVARTIS AG, priority 2015, dated 2018)
